Source: PubChem BioAssay AID1259407 (Chemical Carcinogenesis Research Information System (CCRIS), 2018)
Active and inactive are the calls of the source. How the calls were made is not given here.

System: CCRIS mutagenicity, Ames/micronucleus/aberration tests
Assay: CCRIS mutagenicity studies
[1] = Test System: AMES SALMONELLA TYPHIMURIUM, Strain/Indicator: TA98, Metabolic Activation: NONE, Method: PREINCUBATION
[2] = Test System: AMES SALMONELLA TYPHIMURIUM, Strain/Indicator: TA100, Metabolic Activation: NONE, Method: PREINCUBATION
[3] = Test System: AMES SALMONELLA TYPHIMURIUM, Strain/Indicator: TA1535, Metabolic Activation: NONE, Method: PREINCUBATION
[4] = Test System: AMES SALMONELLA TYPHIMURIUM, Strain/Indicator: TA1537, Metabolic Activation: NONE, Method: PREINCUBATION
[5] = Test System: AMES SALMONELLA TYPHIMURIUM, Strain/Indicator: TA98, Metabolic Activation: RAT, LIVER, S-9, AROCLOR 1254, Method: STANDARD PLATE
[6] = Test System: AMES SALMONELLA TYPHIMURIUM, Strain/Indicator: TA100, Metabolic Activation: RAT, LIVER, S-9, AROCLOR 1254, Method: STANDARD PLATE
[7] = Test System: AMES SALMONELLA TYPHIMURIUM, Strain/Indicator: TA100, Metabolic Activation: NONE, Method: STANDARD PLATE

Measured: mutagenic call

OCCN1CN(CCO)CN(CCO)C1
active: Test System: AMES SALMONELLA TYPHIMURIUM, Strain/Indicator: TA100, Metabolic Activation: HAMSTER, LIVER, S-9, AROCLOR 1254 (10%), Method: PREINCUBATION active; positive
inactive: Test System: AMES SALMONELLA TYPHIMURIUM, Strain/Indicator: TA98, Metabolic Activation: HAMSTER, LIVER, S-9, AROCLOR 1254 (10%), Method: PREINCUBATION inactive; negative | [1] inactive; negative | Test System: AMES SALMONELLA TYPHIMURIUM, Strain/Indicator: TA98, Metabolic Activation: RAT, LIVER, S-9, AROCLOR 1254 (10%), Method: PREINCUBATION inactive; negative | [2] inactive; negative | Test System: AMES SALMONELLA TYPHIMURIUM, Strain/Indicator: TA100, Metabolic Activation: RAT, LIVER, S-9, AROCLOR 1254 (10%), Method: PREINCUBATION inactive; negative | Test System: AMES SALMONELLA TYPHIMURIUM, Strain/Indicator: TA1535, Metabolic Activation: HAMSTER, LIVER, S-9, AROCLOR 1254 (10%), Method: PREINCUBATION inactive; negative | [3] inactive; negative | Test System: AMES SALMONELLA TYPHIMURIUM, Strain/Indicator: TA1535, Metabolic Activation: RAT, LIVER, S-9, AROCLOR 1254 (10%), Method: PREINCUBATION inactive; negative | Test System: AMES SALMONELLA TYPHIMURIUM, Strain/Indicator: TA1537, Metabolic Activation: HAMSTER, LIVER, S-9, AROCLOR 1254 (10%), Method: PREINCUBATION inactive; negative | [4] inactive; negative | Test System: AMES SALMONELLA TYPHIMURIUM, Strain/Indicator: TA1537, Metabolic Activation: RAT, LIVER, S-9, AROCLOR 1254 (10%), Method: PREINCUBATION inactive; negative

c1ccc2c(c1)ccc1ncccc12
active: End Point: IN VITRO CHROMOSOMAL ABERRATIONS, Test System: CHL CELLS, Metabolic Activation: RAT, LIVER, S-9, SODIUM PHENOBARBITAL AND 5,6-BENZOFLAVONE active; positive (structural changes) | End Point: IN VITRO MICRONUCLEUS, Test System: CHL/IU CELLS, Metabolic Activation: NONE active; positive | [5] active; positive | Test System: AMES SALMONELLA TYPHIMURIUM, Strain/Indicator: TA100, Metabolic Activation: RAT, LIVER, S-9, AROCLOR 1254, Method: PREINCUBATION active; positive | [6] active; positive | Test System: AMES SALMONELLA TYPHIMURIUM, Strain/Indicator: TA100, Metabolic Activation: RAT, LIVER, S-9, PHENOBARBITAL AND 5,6-BENZOFLAVONE, Method: PREINCUBATION active; positive

COC(=O)CC(C)=O
active: End Point: In vitro chromosomal aberrations, Test System: Chinese hamster lung (CHL/IU) cells, Metabolic Activation: Rat, Liver, S9, Phenobarbital and 5,6-benzoflavone active; positive (ploidy)
inactive: End Point: In vitro chromosomal aberrations, Test System: Chinese hamster lung (CHL/IU) cells, Metabolic Activation: None inactive; negative | [1] inactive; negative | Test System: AMES SALMONELLA TYPHIMURIUM, Strain/Indicator: TA98, Metabolic Activation: RAT LIVER S-9, PHENOBARBITAL AND BETA-NAPHTHOFLAVONE, Method: PREINCUBATION inactive; negative | Test System: AMES SALMONELLA TYPHIMURIUM, Strain/Indicator: TA98, Metabolic Activation: RAT, LIVER, S-9, KC 500, Method: PREINCUBATION inactive; negative | [2] inactive; negative | Test System: AMES SALMONELLA TYPHIMURIUM, Strain/Indicator: TA100, Metabolic Activation: RAT LIVER S-9, PHENOBARBITAL AND BETA-NAPHTHOFLAVONE, Method: PREINCUBATION inactive; negative | Test System: AMES SALMONELLA TYPHIMURIUM, Strain/Indicator: TA100, Metabolic Activation: RAT, LIVER, S-9, KC 500, Method: PREINCUBATION inactive; negative | [3] inactive; negative | Test System: AMES SALMONELLA TYPHIMURIUM, Strain/Indicator: TA1535, Metabolic Activation: RAT LIVER S-9, PHENOBARBITAL AND BETA-NAPHTHOFLAVONE, Method: PREINCUBATION inactive; negative | Test System: AMES SALMONELLA TYPHIMURIUM, Strain/Indicator: TA1535, Metabolic Activation: RAT, LIVER, S-9, KC 500, Method: PREINCUBATION inactive; negative | [4] inactive; negative | Test System: AMES SALMONELLA TYPHIMURIUM, Strain/Indicator: TA1537, Metabolic Activation: RAT LIVER S-9, PHENOBARBITAL AND BETA-NAPHTHOFLAVONE, Method: PREINCUBATION inactive; negative | Test System: AMES SALMONELLA TYPHIMURIUM, Strain/Indicator: TA1537, Metabolic Activation: RAT, LIVER, S-9, KC 500, Method: PREINCUBATION inactive; negative | Test System: AMES SALMONELLA TYPHIMURIUM, Strain/Indicator: TA1538, Metabolic Activation: NONE, Method: PREINCUBATION inactive; negative | Test System: AMES SALMONELLA TYPHIMURIUM, Strain/Indicator: TA1538, Metabolic Activation: RAT, LIVER, S-9, KC 500, Method: PREINCUBATION inactive; negative | Test System: E. COLI, Strain/Indicator: WP2 UVRA, Metabolic Activation: NONE, Method: PREINCUBATION inactive; negative | Test System: E. COLI, Strain/Indicator: WP2 UVRA, Metabolic Activation: RAT, LIVER, S-9, KC 500, Method: PREINCUBATION inactive; negative | Test System: E.COLI, Strain/Indicator: WP2UVRA/PKM101, Metabolic Activation: NONE, Method: PREINCUBATION inactive; negative | Test System: E.COLI, Strain/Indicator: WP2UVRA/PKM101, Metabolic Activation: RAT LIVER S-9, PHENOBARBITAL AND BETA-NAPHTHOFLAVONE, Method: PREINCUBATION inactive; negative

CSCCCCN=C=S
inactive: End Point: IN VITRO MICRONUCLEUS, Test System: HUMAN T-LYMPHOCYTES, Metabolic Activation: NONE inactive; negative

CC(=O)C(=O)c1ccccc1
inactive: [7] inactive; negative

C[C@@H](C(=O)O)N(N=[N+]=[N-])C(=O)OC(C)(C)C
active: [7] active; positive

O=[N+]([O-])c1cc2[nH]c3ccc4ccccc4c3c2c2ccccc12
active: Test System: AMES SALMONELLA TYPHIMURIUM, Strain/Indicator: TA98, Metabolic Activation: RAT, LIVER, S-9, 3-METHYLCHOLANTHRENE, Method: STANDARD PLATE active; positive
inactive: Test System: AMES SALMONELLA TYPHIMURIUM, Strain/Indicator: TA98, Metabolic Activation: NONE, Method: STANDARD PLATE inactive; negative | [7] inactive; negative | Test System: AMES SALMONELLA TYPHIMURIUM, Strain/Indicator: TA100, Metabolic Activation: RAT, LIVER, S-9, 3-METHYLCHOLANTHRENE, Method: STANDARD PLATE inactive; negative

Cc1cc(C)cc(NO)c1
active: Test System: AMES SALMONELLA TYPHIMURIUM, Strain/Indicator: TA100, Metabolic Activation: RAT, LIVER, S-9, PCB, Method: PREINCUBATION active; positive

Cc1cc2ccccc2c2ccc3ccccc3c12
inactive: [1] inactive; negative | [2] inactive; negative | [7] inactive; negative | Test System: AMES SALMONELLA TYPHIMURIUM, Strain/Indicator: TA100, Metabolic Activation: RAT, LIVER, MICROSOMES, 5-METHYLCHRYSENE, Method: STANDARD PLATE inactive; negative | Test System: AMES SALMONELLA TYPHIMURIUM, Strain/Indicator: TA100, Metabolic Activation: RAT, LIVER, MICROSOMES, Method: STANDARD PLATE inactive; negative
active: End Point: Chinese hamster lung fibroblasts, Strain/Indicator: V79MZ/HPRT/6-Thioguanidine, Metabolic Activation: Stably transfected human CYP1A1 (hCYP1A1), Method: Preincubation active; positive. highly potent. protection against mutagenicity by human glutathione s- | End Point: Chinese hamster lung fibroblasts, Strain/Indicator: V79MZ/HPRT/6-Thioguanidine, Metabolic Activation: Stably transfected human CYP1B1 (hCYP1B1), Method: Preincubation active; positive. highly potent. protection against mutagenicity by human glutathione s- | [5] active; positive | Test System: AMES SALMONELLA TYPHIMURIUM, Strain/Indicator: TA98, Metabolic Activation: RAT, LIVER, S-9, Method: PREINCUBATION active; positive | Test System: AMES SALMONELLA TYPHIMURIUM, Strain/Indicator: TA100, Metabolic Activation: RAT, LIVER, MICROSOMES, AROCLOR 1254, Method: STANDARD PLATE active; positive | [6] active; positive | Test System: AMES SALMONELLA TYPHIMURIUM, Strain/Indicator: TA100, Metabolic Activation: RAT, LIVER, S-9, Method: PREINCUBATION active; positive
